In patent US20220395464A1, “ORALLY ADMINISTERED SOLID DOSAGE FORM DRUG” (ASCENTAWITS PHARMACEUTICALS, LTD., priority 2019, published 2022):
pIC50: −log10 of the molar value. Read-outs that look alike come from different tables or passages of the source.

Experiments:
[1] = tested on: H460 non-small cell lung cancer; settings: cited from earlier work
[2] = tested on: H460 non-small cell lung cancer; assay: In vitro proliferation inhibition assay, 2 h exposure, Alamar Blue, with or without AKR1C3 inhibitor TH3021; type: cell-based, human; settings: for pIC50: 2 h exposure, 70 h further incubation
Procedure: The activities of the compounds were evaluated by a proliferation inhibition assay of active cancer cells in vitro.
In vitro proliferation data for a human tumor cell line of H460 non-small cell lung cancer were reported in a Table of compounds below.
IC50 values were in nanomoles and were obtained by the following procedure. Cells were exposed in the compounds with different concentration for 2 hours. Next, the compounds were washed off, and fresh medium was added into plates. Afterwards, a growth rate and a cell-survival rate were obtained by cell staining and compared with a control treated with the medium only.
Specifically speaking, the exponentially growing cells were seeded in 96-well plates at a density of 4×10^3 cells/well, and incubated for 24 hours at 37° C. in 5% CO2, 95% air and 100% relative humidity. Next, the compounds were added. Complementary, the compounds were dissolved in 100% DMSO at 200 times a desired final test concentration. The compounds were further diluted to 4 times the desired final test concentration with complete medium when the drug was added. A 50 μl aliquot of drug with the specific concentrations of the compounds was added to the 96-well plates already containing 150 μl of medium respectively to get the final test concentration reported. After the drug was added, the 96-well plates were incubated for 2 hours at 37° C. in 5% CO2, 95% air and 100% relative humidity. Then, the drug was washed off, and the 96-well plates were incubated for 70 hours at 37° C. in 5% CO2, 95% air and 100% relative humidity after adding the fresh medium. At the end of this incubation, Alamar Blue assay was used to quantify viable cells. The concentrations of the drug causing 50% growth inhibition (IC50) were calculated using computer software, and results are presented in a table below.
A cancer cell proliferation activity of the compounds with or without AKR1C3 enzyme inhibition was measured with and without adding TH3021 (with a sufficient inhibitory concentration), an inhibitor of AKR1C3.

| pIC50 ([2]; H460, + TH3021 (inhibitor of AKR1C3)) | pIC50 ([2]; Homo sapiens, NCI-H460, H460, + TH3021 (inhibitor of AKR1C3)) | pIC50 ([2]; Homo sapiens, NCI-H460, H460, without TH3021) | SMILES | pIC50 ([1]; + TH3021 (inhibitor of AKR1C3), (Reference)) | pIC50 ([1]; without TH3021, (Reference)) | In vitro activity compared with AST-3424, in words ([2]; H460, FIG. 1 and Table 12) |
| --- | --- | --- | --- | --- | --- | --- |
| – | – | – | C[C@H](OP(=O)(N1CC1)N1CC1)c1ccc([N+](=O)[O-])c(Oc2cccc(C(=O)N(C)C)c2)c1 [AST-3424, (S)-1-(3-(3-N,N-Dimethylaminocarbonyl)phenoxy-4-nitrophenyl)-1-ethyl-N,N′-bis(ethylene) phosphoramidate] | 6.85 | > 8.34 | – |
| 6.78 | 6.96 | > 8.34 | [2H]C([2H])([2H])N(C(=O)c1cccc(Oc2cc([C@H](C)OP(=O)(N3CC3)N3CC3)ccc2[N+](=O)[O-])c1)C([2H])([2H])[2H] [AST-3424-D6] | – | – | similar |
